According to patent US11136313B2, “Compounds, compositions, and methods for modulating CFTR” (Proteostasis Therapeutics, Inc., priority 2015, dated 2021):

biological target: T1, ΔF508-CFTR (Homo sapiens, UniProt P13569, DEL508-508); experiment: hBE equivalent current (Ieq) assay: AUC of equivalent chloride current after forskolin/VX-770 in primary lung epithelial cells homozygous for ΔF508; assay type: cell-based; conditions: relative to CFTR amplifier (Compound A)+VX-809 (3 uM), compound at 10 uM and Compound A at 3 uM, 24 h treatment
T1 construct: Primary lung epithelial cells homozygous for the Cystic Fibrosis-causing ΔF508 mutation were differentiated for a minimum of 4 weeks; endogenous in cells; host or cells: primary lung epithelial cells (hBE) homozygous for ΔF508, differentiated at an air-liquid interface
How it was run: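 ΔF508/ΔF508 primary human bronchial epithelia, differentiated ≥4 weeks at air-liquid interface, treated basolaterally with compound for 24 h at 37 °C. Transepithelial voltage and conductance by 24-channel current clamp at 36 °C: benzamil, then forskolin plus VX-770 for 27 min, then bumetanide; AUC of equivalent chloride current over vehicle.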

T1 sequence (P13569 with tags, fused parts or gaps DEL508-508): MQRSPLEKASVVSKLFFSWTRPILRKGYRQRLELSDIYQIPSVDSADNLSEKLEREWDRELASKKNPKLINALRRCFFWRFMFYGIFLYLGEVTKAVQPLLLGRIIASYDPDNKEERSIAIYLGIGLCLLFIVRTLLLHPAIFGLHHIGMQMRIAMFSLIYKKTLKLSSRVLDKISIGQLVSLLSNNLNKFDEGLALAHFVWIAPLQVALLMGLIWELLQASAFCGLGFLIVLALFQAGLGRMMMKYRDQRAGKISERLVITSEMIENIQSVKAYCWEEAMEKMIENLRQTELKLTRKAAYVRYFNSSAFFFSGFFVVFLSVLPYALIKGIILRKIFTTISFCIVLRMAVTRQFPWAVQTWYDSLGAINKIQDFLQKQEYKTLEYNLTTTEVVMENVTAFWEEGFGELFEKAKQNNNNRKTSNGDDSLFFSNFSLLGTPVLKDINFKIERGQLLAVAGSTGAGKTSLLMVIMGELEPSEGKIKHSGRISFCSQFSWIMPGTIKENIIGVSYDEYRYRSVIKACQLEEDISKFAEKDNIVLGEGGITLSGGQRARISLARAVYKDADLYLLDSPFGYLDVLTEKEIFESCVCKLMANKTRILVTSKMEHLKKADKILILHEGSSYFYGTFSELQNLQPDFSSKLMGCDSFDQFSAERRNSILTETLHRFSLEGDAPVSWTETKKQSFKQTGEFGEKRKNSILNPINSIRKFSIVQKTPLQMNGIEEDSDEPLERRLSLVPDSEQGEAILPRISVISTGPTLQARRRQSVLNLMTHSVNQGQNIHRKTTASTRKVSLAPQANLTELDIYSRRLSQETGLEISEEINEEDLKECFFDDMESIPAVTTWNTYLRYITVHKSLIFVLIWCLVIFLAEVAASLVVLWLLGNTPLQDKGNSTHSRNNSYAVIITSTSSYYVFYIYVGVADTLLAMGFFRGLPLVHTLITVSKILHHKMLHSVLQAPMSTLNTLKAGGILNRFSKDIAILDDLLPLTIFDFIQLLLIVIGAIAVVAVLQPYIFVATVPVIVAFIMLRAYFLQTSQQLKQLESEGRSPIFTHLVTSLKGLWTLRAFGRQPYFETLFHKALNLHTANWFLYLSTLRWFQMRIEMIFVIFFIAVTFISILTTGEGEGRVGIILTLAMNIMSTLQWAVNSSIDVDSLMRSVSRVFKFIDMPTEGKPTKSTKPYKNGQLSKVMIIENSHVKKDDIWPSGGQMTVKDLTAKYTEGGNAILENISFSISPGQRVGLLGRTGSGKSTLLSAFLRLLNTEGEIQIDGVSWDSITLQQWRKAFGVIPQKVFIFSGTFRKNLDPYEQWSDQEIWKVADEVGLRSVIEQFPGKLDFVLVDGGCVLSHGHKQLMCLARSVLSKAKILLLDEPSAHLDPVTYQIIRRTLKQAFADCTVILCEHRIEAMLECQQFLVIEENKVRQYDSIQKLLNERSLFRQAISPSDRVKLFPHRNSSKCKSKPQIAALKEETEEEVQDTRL

Structure (SMILES)	Activity
CCc1ccc(OCc2ccc(-c3cnccn3)cc2)c2c(C(=O)O)cc(-c3csc4ccccc34)nc12 [Compound 192, 2-(1-Benzothiophen-3-yl)-8-ethyl-5-[[4-(pyrazin-2-yl)phenyl]methoxy]quinoline-4-carboxylic acid]	++ (activity>50% of CFTR amplifier+VX-809 (3 uM) with compound at 10 uM and Compound A at 3 uM)
CCc1ccc(OCc2cccc(-c3cccnc3)c2)c2c(C(=O)O)cc(-c3csc4ccccc34)nc12 [Compound 194]	+ (activity<50% of an CFTR amplifier (Compound A)+VX-809 (3 uM) with compound at 10 uM and Compound A at 3 uM)
CCc1ccc(OCc2ccc(-c3cccnc3)cc2)c2c(C(=O)O)cc(-c3csc4ccccc34)nc12 [Compound 195]	++ (activity>50% of CFTR amplifier+VX-809 (3 uM) with compound at 10 uM and Compound A at 3 uM)
Cc1c(-c2cc(C(=O)O)c3c(O[C@H]4CC[C@@H](c5ncco5)CC4)ccc(C)c3n2)oc2ccccc12 [Compound 196]	++ (activity>50% of CFTR amplifier+VX-809 (3 uM) with compound at 10 uM and Compound A at 3 uM)
Cc1c(-c2cc(C(=O)O)c3c(O[C@H]4CC[C@H](c5ncco5)CC4)ccc(C)c3n2)oc2ccccc12 [Compound 197]	++ (activity>50% of CFTR amplifier+VX-809 (3 uM) with compound at 10 uM and Compound A at 3 uM)
Cc1ccc(O[C@H](C)c2ccccc2)c2c(C(=O)[O-])cc(-c3nc4ccccn4c3C)nc12.[Na+] [Compound 200]	+ (activity<50% of an CFTR amplifier (Compound A)+VX-809 (3 uM) with compound at 10 uM and Compound A at 3 uM)
Cc1ccc(O[C@@H](C)c2ccccc2)c2c(C(=O)[O-])cc(-c3nc4ccccn4c3C)nc12.[Na+] [Compound 201]	++ (activity>50% of CFTR amplifier+VX-809 (3 uM) with compound at 10 uM and Compound A at 3 uM)
Cc1ccc(O[C@H](C)c2ccccc2)c2c(C(=O)[O-])cc(-c3cn4ccccc4n3)nc12.[Na+] [Compound 202, Sodium 2-[Imidazo[1,2-a]pyridin-2-yl]-8-methyl-5-[(1R)-1-phenylethoxy]quinoline-4-carboxylate]	+ (activity<50% of an CFTR amplifier (Compound A)+VX-809 (3 uM) with compound at 10 uM and Compound A at 3 uM)
Cc1ccc(O[C@@H](C)c2ccccc2)c2c(C(=O)[O-])cc(-c3cn4ccccc4n3)nc12.[Na+] [Compound 203, Sodium 2-[Imidazo[1,2-a]pyridin-2-yl]-8-methyl-5-[(1S)-1-phenylethoxy]quinoline-4-carboxylate]	+ (activity<50% of an CFTR amplifier (Compound A)+VX-809 (3 uM) with compound at 10 uM and Compound A at 3 uM)
Cc1ccc(O[C@H](C)c2ccccc2)c2c(C(=O)[O-])cc(-c3cc4ccccn4n3)nc12.[Na+] [Compound 208]	++ (activity>50% of CFTR amplifier+VX-809 (3 uM) with compound at 10 uM and Compound A at 3 uM)
Cc1ccc(O[C@@H](C)c2ccccc2)c2c(C(=O)[O-])cc(-c3cc4ccccn4n3)nc12.[Na+] [Compound 209]	+ (activity<50% of an CFTR amplifier (Compound A)+VX-809 (3 uM) with compound at 10 uM and Compound A at 3 uM)
Cc1c(-c2cc(C(=O)[O-])c3c(O[C@H](C)c4ccccc4)ccc(C)c3n2)oc2ccccc12.[Na+] [Compound 212]	++ (activity>50% of CFTR amplifier+VX-809 (3 uM) with compound at 10 uM and Compound A at 3 uM)
Cc1c(-c2cc(C(=O)[O-])c3c(O[C@@H](C)c4ccccc4)ccc(C)c3n2)oc2ccccc12.[Na+] [Compound 213]	++ (activity>50% of CFTR amplifier+VX-809 (3 uM) with compound at 10 uM and Compound A at 3 uM)
CCc1ccc(O[C@@H]2CCC[C@H](C)C2)c2c(C(=O)[O-])cc(-c3sc4ccccc4c3C)nc12.[Na+] [Compound 214, Sodium 8-Ethyl-2-(3-methyl-1-benzothiophen-2-yl)-5-[[(1R,3S)-3-methylcyclohexyl]oxy]quinoline-4-carboxylate]	++ (activity>50% of CFTR amplifier+VX-809 (3 uM) with compound at 10 uM and Compound A at 3 uM)
CCc1ccc(O[C@H]2CCC[C@@H](C)C2)c2c(C(=O)[O-])cc(-c3sc4ccccc4c3C)nc12.[Na+] [Compound 215, Sodium 8-Ethyl-2-(3-methyl-1-benzothiophen-2-yl)-5-[[(1S,3R)-3-methylcyclohexyl]oxy]quinoline-4-carboxylate]	++ (activity>50% of CFTR amplifier+VX-809 (3 uM) with compound at 10 uM and Compound A at 3 uM)
CCc1ccc(O[C@H]2CCC[C@H](C)C2)c2c(C(=O)[O-])cc(-c3sc4ccccc4c3C)nc12.[Na+] [Compound 216, Sodium 8-Ethyl-2-(3-methyl-1-benzothiophen-2-yl)-5-[[(1S,3S)-3-methylcyclohexyl]oxy]quinoline-4-carboxylate]	++ (activity>50% of CFTR amplifier+VX-809 (3 uM) with compound at 10 uM and Compound A at 3 uM)
CCc1ccc(O[C@@H]2CCC[C@@H](C)C2)c2c(C(=O)[O-])cc(-c3sc4ccccc4c3C)nc12.[Na+] [Compound 217, Sodium 8-Ethyl-2-(3-methyl-1-benzothiophen-2-yl)-5-[[(1R,3R)-3-methylcyclohexyl]oxy]quinoline-4-carboxylate]	++ (activity>50% of CFTR amplifier+VX-809 (3 uM) with compound at 10 uM and Compound A at 3 uM)
Cc1c(-c2cc(C(=O)[O-])c3c(O[C@@H]4CCC[C@H](C)C4)ccc(C)c3n2)sc2ccccc12.[Na+] [Compound 218, Sodium 8-Methyl-2-(3-methyl-1-benzothiophen-2-yl)-5-[[(1R,3S)-3-methylcyclohexyl]oxy]quinoline-4-carboxylate]	++ (activity>50% of CFTR amplifier+VX-809 (3 uM) with compound at 10 uM and Compound A at 3 uM)
Cc1c(-c2cc(C(=O)[O-])c3c(O[C@H]4CCC[C@@H](C)C4)ccc(C)c3n2)sc2ccccc12.[Na+] [Compound 219, Sodium 8-Methyl-2-(3-methyl-1-benzothiophen-2-yl)-5-[[(1S,3R)-3-methylcyclohexyl]oxy]quinoline-4-carboxylic acid]	++ (activity>50% of CFTR amplifier+VX-809 (3 uM) with compound at 10 uM and Compound A at 3 uM)
Cc1c(-c2cc(C(=O)[O-])c3c(O[C@H]4CCC[C@H](C)C4)ccc(C)c3n2)sc2ccccc12.[Na+] [Compound 220, Sodium 8-Methyl-2-(3-methyl-1-benzothiophen-2-yl)-5-[[(1S,3S)-3-methylcyclohexyl]oxy]quinoline-4-carboxylate]	++ (activity>50% of CFTR amplifier+VX-809 (3 uM) with compound at 10 uM and Compound A at 3 uM)
Cc1ccc([C@H](C)Oc2ccc(C)c3nc(-c4sc5ccccc5c4C)cc(C(=O)[O-])c23)cc1.[Na+] [Compound 227, Sodium 8-Methyl-2-(3-methyl-1-benzothiophen-2-yl)-5-[(1S)-1-(4-methylphenyl)ethoxy]quinoline-4-carboxylate]	++ (activity>50% of CFTR amplifier+VX-809 (3 uM) with compound at 10 uM and Compound A at 3 uM)
Cc1c(-c2cc(C(=O)[O-])c3c(O[C@H](C)c4ccc(S(C)(=O)=O)cc4)ccc(C)c3n2)oc2ccccc12.[Na+] [Compound 229, Sodium 5-[(1R)-1-(4-methanesulfonylphenyl)ethoxy]-8-methyl-2-(3-methyl-1-benzofuran-2-yl)quinoline-4-carboxylate]	++ (activity>50% of CFTR amplifier+VX-809 (3 uM) with compound at 10 uM and Compound A at 3 uM)
